This note sets out measurements from publication PMC7432838, “A Curcumin Analog Exhibits Multiple Biologic Effects on the Pathogenesis of Alzheimer’s Disease and Improves Behavior, Inflammation, and β-Amyloid Accumulation in a Mouse Model” (International Journal of Molecular Sciences, 2020).

A short description of series [1]: Water solubility (preformulation, preliminary studies). It counts as physicochemical. Particulars: unformulated. The method, then:
The active pharmaceutical ingredients of TML-6 were synthesized and physico-chemical properties were characterized by SinoPharm Pharmaceutical Company (SPT), Tainan, Taiwan. Preformulation studies on the solubility of TML-6 were conducted by Value Pharmaceutical Services (VPS) Company, Jiansu, China. All the data in this study were conducted using unformulated TML-6. Formulation to optimize the solubility and permeability of TML-6 is under development for toxicological studies.

Series [2] concerns Aβ in 3xTg AD mouse brain. Nature of the series: Immunofluorescence staining of Aβ in brain of 3xTg AD mice. To be noted: 150 mg/kg/day in diet for four months. It counts as in vivo. Here is the method: (§1) The triplex transgenic mouse model (3xTg-AD, APP Swedish, MAPT P301L, and PSEN1 M146V) was adopted as the AD model and bred at the laboratory animal center of National Cheng Kung University (NCKU), Tainan, Taiwan. The mice were housed in a room maintained on a 12 h light–dark cycle and fed ad libitum. Six-month old 3xTg-AD mice were used for animal experiments. Experimental procedures for handling the mice were in accordance with the guidelines of the Institutional Animal Care and Use Committee (IACUC) of NCKU. These mice develop plaques and tangles pathology. Aβ deposition is progressive, and deposition appears as early as nine months for triplex-Tg mice. […] The quantity of the diet consumed by the mice was determined daily. The concentration of curcumin and TML-6 in the diet was determined to be around 1.20 mg/g of diet after assaying by HPLC by the Development Center for the Biotechnology (DCB), Taipei, Taiwan.
(§2) Mice were anesthetized using pentobarbital (60 mg/kg, intravenous) and then transcardial perfusion was performed with 0.01 M PBS (pH 7.4). […] Images were captured by the TissureFAXS microscopy system and positive signals were quantified by TissueQuest software module (TissueGnostic, Vienne, Austria).

For series [3], the system named is Huh-7 cells. Nature of the series: Cytotoxicity assay by Cell Counting Kit-8 (CCK-8). It counts as cell-based, human. Particulars: Huh-7, 24 h. The method, then: The cytotoxicity assay was performed using the Cell Counting Kit-8 (CCK-8, Sigma). We dissolved 0.0524 g of TML-6 (molecular weight is 523.62 g/mol) in 10 mL DMSO to obtain TML-6 stock at 10 mM for cell line study. […] Briefly, Huh-7 cells were seeded overnight in 96-well plates at 5000 cells/well and then subjected to traditional curcumin or TML-6 treatment for 24 h. At each time point, a CCK-8 solution (0.25 mg/mL) was added to the medium in each well for an additional 4 h incubation, and absorbance was measured at 570 nm using an ELISA reader.
Background: Tetrazolium dyes change colour on reduction, which living cells bring about.

In series [4] the test system is N2a/APPswe stable cells. Kind of series: Cell viability/morphology by micrographs during Aβ ELISA treatment. It counts as cell-based, mouse. To be noted: 24 h. Here is the method:
Extracellular levels of soluble Aβ40 and Aβ42 were determined by LEGEND MAX™ β-Amyloid x-40 and X-42 ELISA Kit (Biolegend, San Diego, CA, USA). Overexpression of the APP Swedish mutation (APPswe) in the N2a neuronblastoma cell line was called the N2a/APPswe cell line. N2a/APPswe stable cells were seeded at 8 × 10^5 cells in 6 cm dishes. After overnight incubation, the cells were treated with curcumin and TML-6 for 24 h. […] The culture supernatant was collected and centrifuged at 1500× g at 4 °C for 5 min to remove cells. The culture supernatants from various treatments were conducted to examine the Aβ levels according to the manufacturer’s instructions. The samples for the detection of soluble Aβ levels were diluted in the supernatant at a 1:10 dilution for this experiment. Levels of soluble Aβ were detected by measuring the OD at 620 nm (Molecular Devices, San Jose, CA, USA). The calculation of Aβ levels was based on the standard curves of Aβ40 and Aβ42, respectively.

Series [5] concerns Iba-1 (microglial activation marker) in 3xTg AD mouse hippocampus. Nature of the series: Immunofluorescence staining of Iba-1 in brain of 3xTg AD mice. It is filed as in vivo. Particulars: 150 mg/kg/day in diet for four months. The method, then: as §1, §2
In series [6] the test system is 3xTg AD transgenic mice. Nature of the series: Morris water maze test in 3xTg AD transgenic mice. To be noted: 150 mg/kg/day in diet for four months; six-month-old 3xTg AD mice; vs vehicle control. It is filed as in vivo, mouse. Here is the method:
The triplex transgenic mouse model (3xTg-AD, APP Swedish, MAPT P301L, and PSEN1 M146V) was adopted as the AD model and bred at the laboratory animal center of National Cheng Kung University (NCKU), Tainan, Taiwan. The mice were housed in a room maintained on a 12 h light–dark cycle and fed ad libitum. Six-month old 3xTg-AD mice were used for animal experiments. Experimental procedures for handling the mice were in accordance with the guidelines of the Institutional Animal Care and Use Committee (IACUC) of NCKU. These mice develop plaques and tangles pathology. Aβ deposition is progressive, and deposition appears as early as nine months for triplex-Tg mice. The AD transgenic mice were fed with the control diet (Laboratory Rodent Diet 5001, LabDiet, St. Louis, MO, USA), the control diet plus traditional curcumin (150 mg/kg), or the control diet plus TML-6 (150 mg/kg) for four months. Diets were stored at 4 °C and were added to mouse cage twice a week. The quantity of the diet consumed by the mice was determined daily. The concentration of curcumin and TML-6 in the diet was determined to be around 1.20 mg/g of diet after assaying by HPLC by the Development Center for the Biotechnology (DCB), Taipei, Taiwan.
For assessing spatial learning and memory, the Morris water maze was used as we described before. […] The time taken to reach the platform was recorded as escape latency.

For orientation: solubility means the concentration that dissolves in the medium under given conditions. As for `CCN(CC)C(=O)CC(C)(C(=O)/C=C/c1ccc(OC)c(OC)c1)C(=O)/C=C/c1ccc(OC)c(OC)c1` [TML-6], the solubility in series [1] (water) was below 100 µg/mL. Besides, in series [2], the “reduction of Aβ expression in brain vs vehicle control” value was 51%. Also, the “cytotoxicity (CCK-8)” value in series [3] (concentrations below 5 μM (2.61 µg/mL)) was “no cytotoxicity”. In series [4], the “highest dose, at which cytotoxicity was seen (micrographs)” value worked out at 4.19 µg/mL. Further, the “suppression of Iba-1 expression in hippocampus vs vehicle control” value in series [5] amounted to 50%. In addition, the “learning behavior in Morris water maze (in words)” value in series [6] is “significantly improved hippocampus-dependent learning behavior”.
One may read the IC50 as the concentration at which inhibition is half-maximal. Higher therefore signals weaker potency. Turning to curcumin [reference compound], the water solubility entry in series [1] is “less than 0.1 mg/mL”. Further, in series [2], the “Aβ expression in brain vs vehicle (in words)” value is reported as “trend of reduction but without significant differences”. In series [3], this molecule displayed an IC50 of 60 µM. Further, the “cytotoxicity (CCK-8)” value in series [3] (up to highest concentration of 20 µg/mL) is on record as “no obvious cytotoxicity”. In addition, the “highest dose, at which cytotoxicity was seen (micrographs)” value in series [4] stood at 20 µg/mL. Also, in series [5], the “Iba-1 expression vs vehicle (in words)” value was “no significant change”. Also, the “learning behavior in Morris water maze (in words)” value in series [6] is “no significant difference”.
